Calls of active or inactive are those of the source. No rule for the calls is given here.
Test system: CCRIS mutagenicity, Ames/micronucleus/aberration tests
Experiment: CCRIS mutagenicity studies

C[C@@H]1Cc2c(Cl)cc(C(=O)NC(Cc3ccccc3)C(=O)O)c(O)c2C(=O)O1 (some centres not stated)
mutagenic call (Test System: AMES SALMONELLA TYPHIMURIUM, Strain/Indicator: TA102, Metabolic Activation: RAT, LIVER, S-9, AROCLOR 1254, Method: STANDARD PLATE): inactive; negative | mutagenic call (Test System: AMES SALMONELLA TYPHIMURIUM, Strain/Indicator: TA104, Metabolic Activation: NONE, Method: PREINCUBATION): inactive; negative | mutagenic call (Test System: AMES SALMONELLA TYPHIMURIUM, Strain/Indicator: TA104, Metabolic Activation: RAT LIVER S-9, Method: PREINCUBATION): inactive; negative | mutagenic call (Test System: AMES SALMONELLA TYPHIMURIUM, Strain/Indicator: TA1535, Metabolic Activation: HAMSTER, LIVER, S-9, AROCLOR 1254 (10 OR 30%), Method: PREINCUBATION): inactive; negative | mutagenic call (Test System: AMES SALMONELLA TYPHIMURIUM, Strain/Indicator: TA1535, Metabolic Activation: HAMSTER, LIVER, S-9, AROCLOR 1254, Method: PREINCUBATION): inactive; negative | mutagenic call (Test System: AMES SALMONELLA TYPHIMURIUM, Strain/Indicator: TA1535, Metabolic Activation: MOUSE KIDNEY S-9, NADP OR ARACHIDONIC ACID (10%), Method: MICROMETHOD): active; positive | mutagenic call (Test System: AMES SALMONELLA TYPHIMURIUM, Strain/Indicator: TA1535, Metabolic Activation: MOUSE LIVER S-9 (10%), Method: MICROMETHOD): inactive; negative | mutagenic call (Test System: AMES SALMONELLA TYPHIMURIUM, Strain/Indicator: TA1535, Metabolic Activation: NONE, Method: STANDARD PLATE): inactive; negative | mutagenic call (Test System: AMES SALMONELLA TYPHIMURIUM, Strain/Indicator: TA1535, Metabolic Activation: RAT LIVER S-9, AROCLOR 1254 (10%), Method: MICROMETHOD): inactive; negative | mutagenic call (Test System: AMES SALMONELLA TYPHIMURIUM, Strain/Indicator: TA1535, Metabolic Activation: RAT LIVER S-9, Method: PREINCUBATION): inactive; negative | mutagenic call (Test System: AMES SALMONELLA TYPHIMURIUM, Strain/Indicator: TA1535, Metabolic Activation: RAT, LIVER, S-9, AROCLOR 1254 (10 OR 30%), Method: PREINCUBATION): inactive; negative | mutagenic call (Test System: AMES SALMONELLA TYPHIMURIUM, Strain/Indicator: TA1535, Metabolic Activation: RAT, LIVER, S-9, AROCLOR 1254, Method: PREINCUBATION): inactive; negative | mutagenic call (Test System: AMES SALMONELLA TYPHIMURIUM, Strain/Indicator: TA1535, Metabolic Activation: RAT, LIVER, S-9, AROCLOR 1254, Method: STANDARD PLATE): inactive; negative | mutagenic call (Test System: AMES SALMONELLA TYPHIMURIUM, Strain/Indicator: TA1537, Metabolic Activation: NONE, Method: PREINCUBATION): inactive; negative | mutagenic call (Test System: AMES SALMONELLA TYPHIMURIUM, Strain/Indicator: TA1537, Metabolic Activation: NONE, Method: STANDARD PLATE): inactive; negative | mutagenic call (Test System: AMES SALMONELLA TYPHIMURIUM, Strain/Indicator: TA1537, Metabolic Activation: RAT LIVER S-9, Method: PREINCUBATION): inactive; negative | mutagenic call (Test System: AMES SALMONELLA TYPHIMURIUM, Strain/Indicator: TA1537, Metabolic Activation: RAT, LIVER, S-9, AROCLOR 1254, Method: STANDARD PLATE): inactive; negative | mutagenic call (Test System: AMES SALMONELLA TYPHIMURIUM, Strain/Indicator: TA1538, Metabolic Activation: MOUSE KIDNEY S-9, NADP OR ARACHIDONIC ACID (10%), Method: MICROMETHOD): active; positive | mutagenic call (Test System: AMES SALMONELLA TYPHIMURIUM, Strain/Indicator: TA1538, Metabolic Activation: MOUSE LIVER S-9 (10%), Method: MICROMETHOD): inactive; negative | mutagenic call (Test System: AMES SALMONELLA TYPHIMURIUM, Strain/Indicator: TA1538, Metabolic Activation: NONE, Method: PREINCUBATION): inactive; negative | mutagenic call (Test System: AMES SALMONELLA TYPHIMURIUM, Strain/Indicator: TA1538, Metabolic Activation: NONE, Method: STANDARD PLATE): inactive; negative | mutagenic call (Test System: AMES SALMONELLA TYPHIMURIUM, Strain/Indicator: TA1538, Metabolic Activation: RAT LIVER S-9, AROCLOR 1254 (10%), Method: MICROMETHOD): inactive; negative | mutagenic call (Test System: AMES SALMONELLA TYPHIMURIUM, Strain/Indicator: TA1538, Metabolic Activation: RAT LIVER S-9, Method: PREINCUBATION): inactive; negative | mutagenic call (Test System: AMES SALMONELLA TYPHIMURIUM, Strain/Indicator: TA1538, Metabolic Activation: RAT, LIVER, S-9, AROCLOR 1254, Method: STANDARD PLATE): inactive; negative | mutagenic call (Test System: CHINESE HAMSTER V-79, Strain/Indicator: V-79(HPRT)/6-THIOGUANINE, Metabolic Activation: NONE): inactive; negative | mutagenic call (Test System: CHINESE HAMSTER V-79, Strain/Indicator: V-79(HPRT)/6-THIOGUANINE, Metabolic Activation: RAT LIVER S-9): inactive; negative | mutagenic call (Test System: Chinese hamster lung cells, Strain/Indicator: V79 (HPRT)/6-Thioguanine, Metabolic Activation: None, Method: Standard plate): active; positive (weak) | mutagenic call (Test System: Chinese hamster lung cells, Strain/Indicator: V79 (HPRT)/6-Thioguanine, Metabolic Activation: Rat, Kidney, S-9 (phenobarbital/beta-naphthoflavone), Method: Standard plate): active; positive (weak) | mutagenic call (Test System: MOUSE LYMPHOMA, Strain/Indicator: L5178Y (TK+/TK-), Metabolic Activation: NONE, Method: SUSPENSION/PLATE): inactive; negative | mutagenic call (Test System: MOUSE LYMPHOMA, Strain/Indicator: L5178Y (TK+/TK-), Metabolic Activation: RAT, LIVER, S-9, AROCLOR 1254, Method: SUSPENSION/PLATE): inactive; negative | mutagenic call (Test System: Mouse lymphoma cells, Strain/Indicator: L5178Y (tk+/tk-), Metabolic Activation: None, Method: Microtiter): active; positive (weak) | mutagenic call (Test System: Mouse lymphoma cells, Strain/Indicator: L5178Y (tk+/tk-), Metabolic Activation: Rat, Kidney, S-9 (phenobarbital/beta-naphthoflavone), Method: Microtiter): active; positive (weak) | mutagenic call (Test System: UDS HUMAN INFANT UROTHELIAL CELLS, Strain/Indicator: THY INCORP, Metabolic Activation: NONE, Method: AUTORADIOGRAPHY): inactive; negative | mutagenic call (Test System: UDS HUMAN UROTHELIAL CELLS, Strain/Indicator: THY INCORP, Metabolic Activation: NONE, Method: AUTORADIOGRAPHY): active; positive | mutagenic call (Test System: UDS HUMAN UROTHELIAL CELLS, Strain/Indicator: THYMIDINE INCORPORATION, Metabolic Activation: NONE, Method: AUTORADIOGRAPHY): active; positive | mutagenic call (Test System: UDS PORCINE PRIMARY BLADDER EPITHELIAL CELL, Strain/Indicator: THY INCORP, Metabolic Activation: NONE, Method: AUTORADIOGRAPHY): active; positive | mutagenic call (Test System: UDS RODENT PRIMARY CELLS, Metabolic Activation: NONE, Method: AUTORADIOGRAPHY (DNA REPAIR)): inactive; negative
